“Also recorded” adds a separate entry of the source.
How the values were obtained:
[1] = test system: 14-3-3γ/Tau pS214 interaction; assay: Fluorescence anisotropy 14-3-3γ titration with compound and monovalent Tau pS214 peptide; format: binding; details: SF250μM with 14-3-3γ, 250 μM compound
Protocol: FA assays in which 14-3-3γ was titrated to a constant concentration of compound (250 μM) in the presence of the distinct monovalent Tau peptide (10 nM) were performed.
The determined stabilization factors are concentration-dependent (here 250 μM of compound) and might differ based on assay design. […] The app. α-factors of these compounds for both 14-3-3/Tau complexes were determined by 14-3-3γ titrations in the presence of varied concentrations of the particular compound (Fig. 5d and e). Both compounds reached saturation for both 14-3-3γ/Tau complexes enabling accurate determination of the α-factor. The app. α-factors of aldehydes 1 and 18 were plotted for both 14-3-3γ/Tau complexes to investigate phospho-binding site selective cooperativity (Fig. 5f and h). To do so, the stabilization factors at a given compound concentration were plotted against the compound concentration, leading to the determination of the app. α-factors. […]
chromatography (HisTrap high performance cartridges, Cytiva). Typically two 5 mL columns were used for a 2 L culture in which the lysate was loaded on the column, washed with 10 CV wash buffer (50 mM Hepes, pH 8.0, 300 mM NaCl, 25 mM imidazole, 2 mM βME), and eluted with several fractions (2-4 CV) of elution buffer (50 mM Hepes, pH 8.0, 300 mM NaCl, 250 mM imidazole, 2 mM βME). Fractions containing the 14-3-3 protein were combined and dialyzed into 25 mM HEPES pH 8.0, 200 mM NaCl, 10 mM MgCl2, 2 mM βME, followed by dialysis into 25 mM HEPES, 100 mM NaCl, 10 mM MgCl2, 500 μM TCEP (adjusted to pH 8.0). Dialyzed protein was concentrated to ∼40 mg/mL, analyzed by Q -Tof LC/MS, and aliquots were flash -frozen for storage at −80 °C. […]
0.1% (v/v) Tween20, 0.1% (w/v) BSA). Dilution series were made in polystyrene low -volume 384 -well plates (Corning #4514, Black Round Bottom). Measurements were performed directly after plate preparation, using a Tecan SPARK plate reader at room temperature ( λex: 485±20 nm; λem: 535±25 nm; mirror: automatic; flashes: 30; settle time: 1 ms; gain: optimal; Z -position: calculated from well). Wells containing only fluorescein labelled peptide were used to set as G -factor calibrated from these wells. All data were analyzed using GraphPad Prism (10.0.1) and fitted with a four -parameter logistic model (4PL) to determine binding affinities (dissociation constant, KD). All data shown is background corrected for the signal without 14 -3-3ζ and the mean and standard deviation of technical duplicate is plotted, assay performed in a scientific duplicate for hit compounds.
Fluorescence Anisotropy – 14-3-3 titrations in the presence of compound To characterize the affinity of the Tau peptides for 14-3-3 in the presence of compound, 14-3-3ζ or γ was titrated in a 2-fold dilution series starting at 400 (for the 14-3-3ζ titrations to Tau pS2) or 800 (for the 14-3-3γ titrations to Tau pS214 or pS324) µM. 14-3-3 was added to 10 nM of fluorescein-labeled peptide (Tau pS2, Tau pS214 or Tau pS324) in the presence of 250 µM compound (1% DMSO). The assays were performed in a similar way as described above. Data shown is the average and standard deviation of a technical duplicate, top plateau corrected where needed, assay performed in a scientific duplicate. […]
The peptide screen was performed in a similar way as the 14-3-3ζ titration in the precence of compound.
14-3-3ζ was titrated in a 2-fold dilution series (starting at 400 µM 14-3-3ζ) to 100 nM of fluorescein-labeled peptides and 250 µM compound 18 (1% DMSO) in FA buffer (10 mM HEPES pH 7.4, 150 mM […]
Data shown is the average of a scientific triplicate. […]
DSF was performed using 40 µl samples containing 2.5 µM 14 -3-3ζ, 25 µM Tau peptide (Tau pS2, Tau pS214 or Tau pS324), […] (1% DMSO) and 5x ProteoOrange (Lumiprobe, 5000x stock in DMSO) in 10 mM HEPES, 150 mM NaCl, 50 µM TCEP (pH 7.4). The samples were heated from 35 °C to 79°C at a rate of 0.3 °C per 15 s in a C FX96 Touch Real-Time PCR Detection System (Bio -Rad). Fluorescence […]

[2] = target: 14-3-3γ (Homo sapiens, UniProt P61981); assay: 19F-NMR spectroscopy of fluorinated analogs at varying 14-3-3 concentrations; format: binding; details: 125 μM stabilizer, 14-3-3 0-250 μM, no Tau peptide
14-3-3γ, sequence (P61981 whole entry): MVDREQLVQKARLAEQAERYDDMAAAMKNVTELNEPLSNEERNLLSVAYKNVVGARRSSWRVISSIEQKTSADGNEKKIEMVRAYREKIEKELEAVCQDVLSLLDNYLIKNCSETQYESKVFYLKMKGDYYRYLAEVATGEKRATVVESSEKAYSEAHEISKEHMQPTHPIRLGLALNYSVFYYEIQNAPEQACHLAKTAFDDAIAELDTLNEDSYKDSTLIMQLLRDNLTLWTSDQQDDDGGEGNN
Protocol: Fig. 3 a Dose–response fluorescence anisotropy data of compound titrations to 10 nM FITC-labeled Tau pS2 peptide and 100 nM 14-3-3ζ. […] Mean of three individually performed experiments (see ESI ^† Fig. S8 for the protein titrations). e Differential scanning fluorimetry assay results. Identified melting temperatures (Tm) of 14-3-3γ alone (2.5 μM) and in the presence of Tau pS2 peptide (25 μM) and additionally with selected compounds (75 μM).
This stepwise mechanism has been described in detail for related benzaldehyde stabilizers and the 14-3-3/Pin1 interaction.[34] However, the imidazolyl-benzaldehydes might also show an intrinsic binding affinity for 14-3-3. To elucidate the underlying processes, we performed ^19F-NMR spectroscopy studies (Fig. 3f) with the fluorinated analogs 20 and 21. At a constant stabilizer concentration (125 μM), the 14-3-3 concentration was varied from 0 μM to 250 μM.

O=Cc1ccc(-n2ccnc2-c2ccccc2)cc1Br [Compound 1] was tested, and the “phospho-binding site preference Tau pS214 versus Tau pS324 (in words)” value [1] was “did not show a difference in stabilization”.

In the case of O=Cc1ccc(-n2ccnc2-c2ccc(C(F)(F)F)cc2)cc1Br [Compound 20], the “binding to 14-3-3 by 19F-NMR (in words)” value [2] is reported as “formation of the binary 14-3-3/stabilizer complex”.

For O=Cc1ccc(-n2ccnc2-c2ccc(Cl)cc2)cc1Br [Compound 14], the “phospho-binding site preference Tau pS214 versus Tau pS324 (in words)” value [1] was “significantly greater extent; also recorded: preference for Tau pS214”.

O=Cc1ccc(-n2ccnc2-c2ccc(OC(F)(F)F)cc2)cc1Br [Compound 21] was tested, and the “binding to 14-3-3 by 19F-NMR (in words)” value [2] was “ligand binding to 14-3-3γ; also recorded: formation of the binary 14-3-3/stabilizer complex”.

With N#Cc1ccc(-c2nccn2-c2ccc(C=O)c(Br)c2)cc1 [Compound 22] the “phospho-binding site preference Tau pS214 versus Tau pS324 (in words)” value [1] was “preference for Tau pS214”.

With Cc1cccc(-c2nccn2-c2ccc(C=O)c(Br)c2)c1 [Compound 6] the “phospho-binding site preference Tau pS214 versus Tau pS324 (in words)” value [1] was “no significant preference”.

For Cc1ccc(-c2nccn2-c2ccc(C=O)c(Br)c2)cc1 [Compound 11], the “phospho-binding site preference Tau pS214 versus Tau pS324 (in words)” value [1] was “significantly greater extent”.

With CCc1ccc(-c2nccn2-c2ccc(C=O)c(Br)c2)cc1 [Compound 18] the “phospho-binding site preference Tau pS214 versus Tau pS324 (in words)” value [1] was “significantly greater extent; also recorded: highest stabilization selectivity for the 14-3-3γ/Tau pS214 complex”.

For O=Cc1ccc(-n2ccnc2-c2ccc(I)cc2)cc1Br [Compound 15], the “phospho-binding site preference Tau pS214 versus Tau pS324 (in words)” value [1] was “significantly greater extent; also recorded: preference for Tau pS214”.

For O=Cc1ccc(-n2ccnc2-c2ccc(F)cc2)cc1Br [Compound 13], the “phospho-binding site preference Tau pS214 versus Tau pS324 (in words)” value [1] was “no preference for Tau pS214”.

— article PMC11892739, “Site-specific molecular glues for the 14-3-3/Tau pS214 protein–protein interaction via reversible covalent imine tethering” (RSC Medicinal Chemistry, 2025)
